From patent US6458585B1, “Cytokine-free culture of dendritic cells” (Nexell Therapeutics Inc., priority 1996, dated 2002)

Tests used:
Assay type in all cases: cell-based, human
[1] = test system: Bulk PBMNC; test: S100+ cells in bulk PBMNC cultures with non-cytokine additives; conditions: day 7; average
Method: (§1) Immunocytochemical staining: PBS (phosphate buffered saline) was made by dissolving 5 PBS tablets into 1000 ml millipore water. Cytospin slides were soaked in PBS. Endogenous peroxidase activity was blocked by treating slides with hydrogen peroxide/PBS (2 ml 30% H2O2+30 ml PBS) for 10 min. Slides were rinsed with PBS one time. Non-specific binding sites were blocked by incubating with normal serum matching source of secondary antibody (i.e. if secondary antibody is biotinylated goat-anti-mouse, used normal goat serum) at room temp. for 15 min. in a humidified environment. Excess serum was shaken from slides and placed 100 ul of primary antibody on slide, making sure cells are covered with liquid and incubated in humidified environment, room temp, for one hour. Negative control slides were incubated with normal serum for this hour. Slides were rinsed 3 times with PBS. Slides were incubated with biotinylated antibody reactive against the primary antibody (i.e. if primary antibody is mouse-anti-human, use a biotinylated goat-anti-mouse antibody) for 1 hour in humidity. Slides were rinsed 3 times with PBS. Slides were incubated with streptavidin-peroxidase, 2 drops/slide, for 30 min. in humidity. Slides were rinsed 3 times with PBS.
(§2) Chromagen solution was made with 5 ml millipore water+2 drops of chromagen buffer+1 drop of concentrated chromagen+1 drop of substrate, and 4-5 drops were added to each slide. […] Slides were counterstained with hematoxylin for about 5 min, or until cell nuclei were stained purple. Cells were rinsed with tap water and allowed to air dry. Slides were covered with crystal mount and oven dried at 80 degrees for 15 min. Slides were allowed to cool, then coversliped with mounting medium.
(§3) Culture of Bulk PBMNC: PBMNC cells were cultured in X-VIVO 15™ supplemented with 2 mM L- glutamine. Cultures were initiated at 5×^05 cells/ml in PL2417 gas-permeable containers (20 ml). GM-CSF and IL-4 were added to the cultures at final concentrations of 50 ng/ml and 1000 U/ml or non-cytokine additives such as Vitamin D3 at 2.5 uM, Vitamin E at 0.1%, Linoleic Acid at 5 ug/ml, or Ca++ Ionophore at 10 mM. Addition and subtraction of cells, media, and growth factors to and from PL2417 gas-permeable containers was accomplished by spiking a Sampling Site Coupler into the sample port of the container followed by use of syringes and needles. Cells were cultured in a 5% CO2, ambient O2, 37° C. humidified incubator for 7 days.
(§4) Cytospin slide preparation, Wright-Geimsa and immunohistochemical staining of the cultured cells were conducted as described in Example 1 and 2 above. Mixed lymphocyte reactions (MLR's) were setup using T cells (responders) and dendritic cell enriched cultures (stimulators) from bulk PBMNC cultures, as described above in Example 1.
The S100 protein is a nerve cell protein that has been associated with dendritic cells. In Table 47, at day 7 of culture, the highest percent of S100+ cells was present in the GM-CSF/IL-4 culture (13%).

[2] = test system: adherent PBMNC; test: DC morphology (Wright-Geimsa) of plastic adherent cells cultured with non-cytokine additives
Method: (§5) Cytofunnels were attached to microscope slides. 50,000 to 100,000 cells were removed from each culture and resuspended in approximately 100 to 200 ul of PBS-CMF. Slides were placed in the Cytospin® centrifuge and spun at 100 rpm for 4 min. Cytofunnels were removed from the slides and the slides were air dried for 1 minute. Ten drops of Wright-Geimsa stain were placed onto each slide and allowed to fix for 1 to 2 minutes. Ten drops of water were added to each slide and allowed to sit for 2 to 4 minutes. The slides were rinsed and air dried.
(§6) Reading of Cytospin Slides: Slides were read under phase contrast microscopy, 40× and 60× oil magnification. One hundred cells were identified and characterized morphologically as either dendritic cells or non-dendritic cells (lymphocytes and monocyte, or CD34+-derived cells in those cases). Digital images were taken using a color monitor and color video printer.
(§7) Enrichment and Culture of Adherent Cells Using Polystyrene Tissue Culture Plates: PBMNC were resuspended in culture media (X-VIVO 15™+10% autologous serum) at 2×10^6 cells/ml. Cells were placed into 48 well polystyrene tissue culture plates […] and incubated for 2 hours in a 5% CO2, ambient O2, 37° C. humidified incubator. Non-adherent cells were removed from the plates then wells were rinsed with X-VIVO 15™ containing no serum. Cells remaining in the wells were adherent cells. These cells were cultured by adding 2 ml of X-VIVO 15™ to each well plus GM-CSF and IL-4 at final concentrations of 50 ng/ml and 1000 U/ml or the following: cAMP at 0.5 mM, dibutyryl cAMP at 0.1 mM, NaF at 0.25 mM, theophylline at 0.5 mM, PGE at 0.1 mM, Vitamin D3 at 2.5 uM, Vitamin E at 0.1%, Retinoic Acid at 10^−6 M, PMA at 1 pM, Linoleic Acid at 5 ug/ml, or Ca^++ Ionophore at 10 mM. Furthermore, cells were also cultured with the above non-cytokine additives plus GM-CSF at 50 ng/ml. Cells were cultured in a 5% CO2, ambient O2, 37° C. humidified incubator for 7 days.
as §4
(§8) Results: In the set of experiments using plastic adherent cells grown in polystyrene tissue culture plates, a Day 0 analysis of the cells was not performed. However, these cultures were analyzed for the presence of DC on days 4 and 7. Analysis perfomed were cell counts, viability via propidium iodide, morphology under Wright-Geimsa staining, and immunohistochemical staining using an anti-S100 antibody.

[3] = test system: adherent PBMNC; test: S100 immunohistochemistry of plastic adherent cells cultured with non-cytokine additives; conditions: for percentage of S100+ cells: without GM-CSF added to additives; for percentages of S100+ cells: additive added to GM-CSF 50 ng/ml
Method: as §1, with “Endogenous peroxidase activity was blocked by treating slides with hydrogen peroxide/PBS (2 ml 30% H2O2+30 ml PBS) for 10 min.” left out
as §2, §7, §4, §8

[4] = test system: Bulk PBMNC; test: Morphologically identified dendritic cells in bulk PBMNC cultures with non-cytokine additives
Method: as §5, §6, §3, §4

[5] = test system: Bulk PBMNC; test: Flow cytometry phenotype of bulk PBMNC cultures with non-cytokine additives; conditions: Day 7
Method: as §3
Cultured cells were phenotyped as described in Example 1 above for the following markers: […]

[6] = test system: T cells; test: Allogeneic MLR with bulk PBMNC cultures grown with non-cytokine additives
Method: MLR's were setup using T cells as responders and dendritic cell enriched cultures as antigen presenters. Sheep red blood cells were prepared and used to erythrocyte rosette T cells from a MNC preparation as described in “Current Protocols in Immunology”, John Wiley & Sons Inc, 1995. Vol. 2, 7.2.1-7.2.4. Erythrocyte+(E+ ) T cells were resuspended to 1×10^6 cells/ml in RPMI 1640/10% FCS. Dendritic cells were resuspended to 1×10^6 cells/ml in RPMI 1640/10% FCS and mitomycin C was added at 25 ug/ml to inhibit proliferation. The tubes were incubated at 37° C. for 30 min. then washed 3 times with PBS-CMF/1% HA. […] […] The appropriate control wells were also prepared. Plates were incubated for 4 or 5 days at 37° C.
Each well was pulsed with 1 uCi of ^3H-thymidine in RPMI 1640/10% FCS. Plates were incubated overnight at 37° C.
Plates were harvested onto glass fiber filter strips using a cell harvester. Discs were placed into scintillation vials containing scintillation cocktail and samples were counted using a beta radiation counter.
as §4
The functional capacity of cultured cells to induce T cell proliferation was measured in an allogeneic MLR. […] At the greatest ratio of 1:100, the differences in capacity to induce T cell proliferation is marginal between the GM-CSF/IL-4 cultured cells and the non-cytofine additive cultured cells.

[7] = test system: adherent PBMNC; test: Cell counts and viability of plastic adherent cells cultured with non-cytokine additives in polystyrene plates; design: % VIABLE: concentration or dose not given beside the values; conditions: for % VIABLE: propidium iodide
Method: Viability Determination: Prior to acquisition, 5 ul propidium iodide (PI) was added to each tube for use as a viability check. The cells were vortexed and acquired within 10 min of PI addition.
as §7, §8

CNc1ccc2oc(C[C@H]3O[C@@]4(CC[C@H]3C)O[C@H]([C@H](C)C(=O)c3ccc[nH]3)[C@H](C)C[C@H]4C)nc2c1C(=O)O [Ca^++ Ionophore, A23187]
percent of S100+ cells [1]: equivalent average percentages | morphologically identified DC ([2]; day 7, without GM-CSF added to additives): next highest percentages | percentage of S100+ cells ([3]; day 4): 17% | percentage of S100+ cells ([3]; day 7): next highest percentages | fold fewer DC (average total number projected in culture) than GM-CSF/IL-4 cultures ([4]; day 7): approximately 4 fold

CNc1ccc2oc(CC3OC4(CCC3C)OC(C(C)C(=O)c3ccc[nH]3)C(C)CC4C)nc2c1C(=O)O (stereo not drawn) [Ca ++ lono]
Percent of Phenotype in Culture: CD1a-PE [5]: 0.04% | Percent of Phenotype in Culture: CD14-PE [5]: 0.26% | Percent of Phenotype in Culture: CD80-PE [5]: 2.21% | Percent of Phenotype in Culture: CD86-PE [5]: 2.32%

Cc1c(C)c2c(c(C)c1O)CCC(C)(CCCC(C)CCCC(C)CCCC(C)C)O2 (mixture of isomers) [Vitamin E]
percent of S100+ cells [1]: equivalent average percentages | percentage of S100+ cells ([3]; day 4): 19% | average total number of morphologically identified DC projected in culture ([4]; day 7): lowest total number

C=C1CC[C@H](O)C/C1=C/C=C1\CCC[C@]2(C)[C@@H]([C@H](C)CCCC(C)C)CC[C@@H]12 [Vitamin D3]
percent of S100+ cells [1]: lowest average percent | percentages of S100+ cells ([3]; day 7): greatest percentages of S100+ cells | fold fewer DC (average total number projected in culture) than GM-CSF/IL-4 cultures ([4]; day 7): approximately 4 fold

CNc1ccc2oc(CC3OC4(CCC3C)OC(C(C)C(=O)c3ccc[nH]3)C(C)CC4C)nc2c1C(=O)O (stereo not drawn) [Ca++ Iono]
Allogeneic MLR. Increase Over Background Proliferation ([6]; Day 7, Cell Culture:T cell Ratio 1:1): 4.8 | Allogeneic MLR. Increase Over Background Proliferation ([6]; Day 7, Cell Culture:T cell Ratio 1:10): 1.8 | Allogeneic MLR. Increase Over Background Proliferation ([6]; Day 7, Cell Culture:T cell Ratio 1:100): 0.9 | % DC ([4]; Day 7): 7.00% | TOTAL # OF DC ([4]; Day 7, projected in culture): 5.74E+05

CCCCC/C=C\C/C=C\CCCCCCCC(=O)O [Linoleic Add]
Percent of Phenotype in Culture: CD1a-PE [5]: 0.08% | Percent of Phenotype in Culture: CD14-PE [5]: 0.46% | Percent of Phenotype in Culture: CD80-PE [5]: 2.61% | Percent of Phenotype in Culture: CD86-PE [5]: 2.72%

Nc1ncnc2c1ncn2[C@@H]1O[C@@H]2COP(=O)(O)O[C@H]2[C@H]1O [cAMP, Cyclic Adenosine Monophosphate]
% DC ([2]; Day 4, with GM-CSF present): 3.00% | % DC ([2]; Day 4, without GM-CSF): 0.00% | % DC ([2]; Day 7, with GM-CSF present): 0.00% | % DC ([2]; Day 7, without GM-CSF): 0.50% | TOTAL CELLS ([7]; Day 4, with GM-CSF present): 2.02E + 05 | % VIABLE ([7]; Day 4, with GM-CSF present): 87.60% | TOTAL CELLS ([7]; Day 4, without GM-CSF): 1.86E + 05 | % VIABLE ([7]; Day 4, without GM-CSF): 76.37% | TOTAL CELLS ([7]; Day 7, with GM-CSF present): 1.56E + 05 | % VIABLE ([7]; Day 7, with GM-CSF present): 60.51% | TOTAL CELLS ([7]; Day 7, without GM-CSF): 2.08E + 05 | % VIABLE ([7]; Day 7, without GM-CSF): 19.89% | % S100+ ([3]; Day 4, with GM-CSF present): 41.00% | % S100+ ([3]; Day 4, without GM-CSF): 10.50% | % S100+ ([3]; Day 7, with GM-CSF present): 47.00% | % S100+ ([3]; Day 7, without GM-CSF): 10.00% | percentages of S100+ cells ([3]; day 7): greatest percentages of S100+ cells

C=C1CCC(O)CC1=CC=C1CCCC2(C)C1CCC2C(C)CCCC(C)C (stereo not drawn) [Vit D3]
% DC ([2]; Day 4, with GM-CSF present): 3.00% | % DC ([2]; Day 4, without GM-CSF): 1.50% | % DC ([2]; Day 7, with GM-CSF present): 5.00% | % DC ([2]; Day 7, without GM-CSF): 0.50% | TOTAL CELLS ([7]; Day 4, with GM-CSF present): 1.95E + 05 | % VIABLE ([7]; Day 4, with GM-CSF present): 95.86% | TOTAL CELLS ([7]; Day 4, without GM-CSF): 2.37E + 05 | % VIABLE ([7]; Day 4, without GM-CSF): 76.06% | TOTAL CELLS ([7]; Day 7, with GM-CSF present): 1.64E + 05 | % VIABLE ([7]; Day 7, with GM-CSF present): 67.44% | TOTAL CELLS ([7]; Day 7, without GM-CSF): 1.82E + 05 | % VIABLE ([7]; Day 7, without GM-CSF): 75.13% | % S100+ ([3]; Day 4, with GM-CSF present): 8.00% | % S100+ ([3]; Day 4, without GM-CSF): 5.50% | % S100+ ([3]; Day 7, with GM-CSF present): 39.00% | % S100+ ([3]; Day 7, without GM-CSF): 16.00%
